Laboratory results published in patent US6878514B1, “Methods for identifying agents that inhibit serum aging factors and uses and compositions thereof” (Purdue Research Foundation, priority 1999, dated 2005).
Like-named read-outs stand apart in the source and are kept apart here. Values belong to the compound of their own block, whether it stands above or below them.

Assays:
[1] = target: T1, NOX (NADH oxidase / ubiquinol oxidase) from HeLa cells (Homo sapiens, UniProt Q16206); experiment: NOX-catalyzed oxidation of ubiquinol (preparation solubilized from HeLa cells); format: biochemical; conditions: HeLa NOX preparation; for EC50: read-out: EC50 inhibition of NOX-catalyzed oxidation of ubiquinol
T1 construct: other: HeLa NOX preparation; other: NOX partially purified from surface of HeLa cells
T1 sequence (Q16206 1-610): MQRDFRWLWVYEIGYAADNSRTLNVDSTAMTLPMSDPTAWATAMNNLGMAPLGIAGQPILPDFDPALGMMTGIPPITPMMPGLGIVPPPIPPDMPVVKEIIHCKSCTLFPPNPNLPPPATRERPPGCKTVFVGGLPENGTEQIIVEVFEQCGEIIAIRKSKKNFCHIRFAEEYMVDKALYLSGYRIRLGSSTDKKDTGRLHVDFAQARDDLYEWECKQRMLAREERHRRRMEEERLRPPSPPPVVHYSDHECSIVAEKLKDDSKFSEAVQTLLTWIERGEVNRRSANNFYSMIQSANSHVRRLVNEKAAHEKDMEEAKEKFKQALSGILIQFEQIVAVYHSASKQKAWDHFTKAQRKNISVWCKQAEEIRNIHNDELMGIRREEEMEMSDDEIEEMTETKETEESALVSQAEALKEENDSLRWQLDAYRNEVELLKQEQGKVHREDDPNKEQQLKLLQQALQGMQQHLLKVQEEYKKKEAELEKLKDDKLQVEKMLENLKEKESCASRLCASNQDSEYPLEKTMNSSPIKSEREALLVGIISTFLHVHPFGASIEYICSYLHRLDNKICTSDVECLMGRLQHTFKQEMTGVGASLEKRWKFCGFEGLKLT
Method: (§1) FIG. 1. Oxidation of reduced ubiquinol at 37° C. by an enzymatic preparation with NADH oxidase activity solubilized from HeLa cells by low pH treatmnent, followed by heat and proteinase K. The disappearance of reduced ubiquinol was determined from the increase in absorbance at 410 nm as a function of time in the presence of 1 mg of the HeLa protein. The concentration of quinol was 50 mM, pH 7.
(§2) Ubiquinol oxidation was estimated based on increase in absorbance at 410 nm for ubiquinone (FIG. 1).

HeLa S = experiment: UV-induced superoxide production (cytochrome c reduction) by HeLa S cells; format: cell-based, human
Method: (§3) The generation of superoxide radical was determined by assaying the rate of superoxide dismutase (SOD)-inhibitable cytochrome c reduction (Mayo and Curnette, 1990, Meth Enzymol. 186:567-575 and Butler et al., 1982, J. Biol. Chem. 257:10747-10750). The cytochrome c was from horse heart mitochondria (type VI, Sigma) and was dissolved in PBSG buffer (see below) to make a solution with a concentration of 1 mg/ml. Air-saturated reaction mixtures of […] cytochrome c stock solution and […] of a cell suspension (suspended in PBSG buffer) to give a final concentration of ˜5×10^6 cells/ml were added to 2 ml of PBSG buffer (138 mM NaCl, 2.7 mM KCl, 8.1 mM Na2HHPO4, pH 7.4 supplemented with 0.9 mM CaCl2, and 7.5 mM glucose and contained in plastic cuvettes. The formation of reduced cytochrome c was measured in the presence and absence of SOD (15 mg, Sigma) or capsaicin (2.5 mM) by comparing the absorbance of the mixture at 550 nm-540 nm. Superoxide formation was stimulated by using a handheld UV light (254 nm, 200 mw/cm^2). The extent of cytochrome c reduction was monitored spectrophotometrically at 550 nm every ten sec with gentle mixing between readings. Data were analyzed from the slope of the change in a 550 nm-540 nm before and after UV and then again after SOD or capsaicin was added. Data were expressed as nmoles O2[…]/10^6 cells using a value of SM550nm=19.1×10^3 M^−1 cm^−1.

BT-20 = experiment: UV-induced superoxide production (cytochrome c reduction) by BT-20 cells; format: cell-based, human
Method: as §3

[2] = target: T2, partially-purified preparation of the oxidase from HeLa cells (Homo sapiens, UniProt Q16206); experiment: UV-induced superoxide generation by partially-purified oxidase from HeLa cells; format: biochemical
T2 construct: endogenous in cells; host or cells: HeLa
T2 sequence (Q16206 1-610): T1 sequence (Q16206 1-610)

[3] = target: T1, NOX (NADH oxidase / ubiquinol oxidase) from HeLa cells; conditions: NOX partially purified from surface of HeLa cells; cited from earlier work
MCF 10A = experiment: UV-induced superoxide production (cytochrome c reduction) by MCF 10A cells; format: cell-based, human
Method: as §3

AR-NOX in sera = experiment: Cytochrome c reduction by sera and inhibition by SOD or ubiquinone (Q10); format: biochemical, human
Method: as §3
Cytochrome c reduction by sera was assayed as for cells except that the samples were not mixed in between readings. The Q10 was added as an ethanolic solution.
Sera were obtained from the patient population of St. Elizabeth Hospital, Lafayette, Ind. and the resident population of St. Anthony's Health Care, Lafayette, Ind. Confidentiality of medical records was assured by assigning a number to each sample.

[4] = tested on: T3, NOX (NADH oxidase / ubiquinol oxidase) from HeLa cells; experiment: NOX-catalyzed oxidation of ubiquinol (preparation solubilized from HeLa cells); format: biochemical, human; conditions: read-out: Km for quinol; substrate of NOX-catalyzed oxidation; heading: Km for quinol
T3 construct: rows headed: Km for quinol; other: substrate of NOX-catalyzed oxidation; Response of NOX-catalyzed oxidation of ubiquinol to agent; other: HeLa NOX preparation; Km for reduced Q10H2; other: NOX partially purified from surface of HeLa cells
Method: as §1, §2

[5] = tested on: T3, NOX (NADH oxidase / ubiquinol oxidase) from HeLa cells; conditions: read-out: Km for reduced Q10H2; NOX partially purified from surface of HeLa cells; heading: Km for reduced Q10H2; cited from earlier work

- Type of inhibition of NOX-catalyzed oxidation of ubiquinol [1]: competitive
- EC50 [1]: 1 nM
- Effect on UV-induced superoxide generation by partially-purified oxidase [2]: inhibited
Structure (SMILES): COc1cc(CNC(=O)CCCC/C=C/C(C)C)ccc1O [capsaicin, 8-methyl-N-vanillyl-6-noneamide]
- Effect on response to UV (superoxide generation) (HeLa S; HeLa): inhibited
- Reduction of cytochrome c as a measure of superoxide formation, After UV, + Capsaicin (HeLa S; HeLa S, 10 minutes of 254 nm UV, 2.5 mM capsaicin in DMSO, corrected for DMSO blank): 0.8 nmoles/min/10^6 cells
- Effect on response to UV (superoxide generation) (BT-20): inhibited
- Reduction of cytochrome c as a measure of superoxide formation, After UV, + Capsaicin (BT-20; 10 minutes of 254 nm UV, 2.5 mM capsaicin in DMSO, corrected for DMSO blank): −3.7 nmoles/min/10^6 cells
- Inhibition of ubiquinol oxidase activity [3]: inhibited competitively
- Effect on UV-induced generation of superoxide (MCF 10A; MCF10A): unaffected
- Reduction of cytochrome c as a measure of superoxide formation, After UV, + Capsaicin (MCF 10A; MCF 10A, 10 minutes of 254 nm UV, 2.5 mM capsaicin in DMSO, corrected for DMSO blank): 7.2 nmoles/min/10^6 cells

Structure (SMILES): COC1=C(OC)C(=O)C(C/C=C(\C)CC/C=C(\C)CC/C=C(\C)CC/C=C(\C)CC/C=C(\C)CC/C=C(\C)CC/C=C(\C)CC/C=C(\C)CC/C=C(\C)CCC=C(C)C)=C(C)C1=O [Q10]
- Effect on superoxide-generating, aging-related enzymatic activity of sera (AR-NOX in sera; 0.1 mM coenzyme Q, sera of elderly individuals 80-94 years): substantially reduced
- Inhibition of reduction of cytochrome c by sera of aged patients, on average (AR-NOX in sera; sera of aged patients, average): 36%
- Reduction of cytochrome c by sera, + 45 mg Q10 (AR-NOX in sera; sera of individuals 83-95 years (n = 5)): 2.5 ± 1.4 nmoles/min/ml/sera

- Type of inhibition of NOX-catalyzed oxidation of ubiquinol [1]: competitive
- EC50 [1]: 30 nM
Structure (SMILES): Cc1ccc(S(=O)(=O)NC(=O)Nc2ccc(Cl)cc2)cc1 [LY181984, N-(4-methylphenylsulfonyl)-N′-(4-chlorophenyl)urea]
- Inhibition of ubiquinol oxidase activity [3]: inhibited competitively

Structure (SMILES): COc1c(O)c(C)c(C/C=C(\C)CC/C=C(\C)CC/C=C(\C)CC/C=C(\C)CC/C=C(\C)CC/C=C(\C)CC/C=C(\C)CC/C=C(\C)CC/C=C(\C)CCC=C(C)C)c(O)c1OC [quinol]
- Km [4]: 33 µM
- Km [5]: 30 µM
